Results published in US5565433A, “Sulfated β-glycolipid derivatives as cell adhesion inhibitors” (Bristol-Myers Squibb Company, priority 1996, dated 1996).

Legend:
P-selectin [1] = molecular target: T1, P-selectin (Homo sapiens, UniProt P16109); assay: P-Selectin Adhesion Receptor Binding: cell-free ELISA, inhibition of P-selectin binding to immobilized sulfatides; details: immobilized sulfatide, pH 8.0
T1 construct: consists of the human lectin domain, the EGF domain, and two complement repeats of the human selectins; made in house
T1 sequence (P16109 with tags, fused parts or gaps limits assumed): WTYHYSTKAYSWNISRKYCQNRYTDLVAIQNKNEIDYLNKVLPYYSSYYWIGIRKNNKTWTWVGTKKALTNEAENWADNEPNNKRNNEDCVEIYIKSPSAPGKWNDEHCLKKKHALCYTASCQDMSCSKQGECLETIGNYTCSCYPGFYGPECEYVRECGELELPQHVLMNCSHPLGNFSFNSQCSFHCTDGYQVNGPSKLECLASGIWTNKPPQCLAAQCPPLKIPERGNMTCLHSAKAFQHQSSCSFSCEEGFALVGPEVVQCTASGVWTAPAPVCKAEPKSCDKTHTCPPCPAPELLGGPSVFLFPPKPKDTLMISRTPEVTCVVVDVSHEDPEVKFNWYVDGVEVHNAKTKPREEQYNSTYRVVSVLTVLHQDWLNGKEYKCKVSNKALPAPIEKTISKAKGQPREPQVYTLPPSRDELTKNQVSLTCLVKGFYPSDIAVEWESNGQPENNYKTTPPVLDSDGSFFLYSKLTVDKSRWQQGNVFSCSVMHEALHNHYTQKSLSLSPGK
Source text: 1. P-Selectin Adhesion Receptor Binding
P-selectin (GMP140, granule membrane protein-140, PADGEM, or CD62) is a calcium-dependent transmembrane protein found in alpha granules of endothelial cells and platelets. It is an inducible selectin produced on activated endothelium and platelets which recognize alpha(2-3)sialylated and alpha(1-3)fucosylated lactosaminoglycans which include the sequence, Lewis x (Zhou et al., J. Cell. Biol., (1991) 115 (2): 557-564) and sulfatides (3-sulfated galactosyl ceramides, Aruffo, et al., Cell (1991) 67: 35-44). P-selectin may be responsible for the initial adhesion events between endothelium and neutrophils as evidenced by leukocyte rolling induced by P-selectin in flow cells (Lawrence, M., and T. Springer, Cell (1991) 65: 859-873).
Based on the availability of soluble forms of P-selectin prepared as described by Aruffo, A., et al., Cell, 67, 35-44 (1991), a binding ELISA based assay modified from Foxall, et al., J., Cell Biol., 117, 895-902 (1992) was developed to measure inhibitors of P-selectin binding to immobilized sulfatides. Such inhibitors were tested in the assay described below.
0.1 ml of sulfatide (SIGMA) or lysosulfatide (SIGMA) each at 1 μg/ml in MeOH were added to the wells of a 96-well ELISA plate (ProBind, Falcon) and allowed to dry overnight at room temperature. The next day the antigen coated plates were blocked for 1.5 hours at room temperature with 5% BSA (ICN) in buffer containing 20mM Hepes and 0.15 M NaCl, pH 8.0. Wild type P-selectin and mutants thereof were first mixed with HRP-conjugated goat anti-human IgG (Fisher Scientific), serially diluted and then incubated for 30 minutes at 37° C. in buffer containing 20 mM Hepes, 0.15 M NaCl, 1% BSA and 0.8 mM CaCl2, pH 8.0 prior to addition to the BSA blocked plates. Following the 30 minute preincubation, the fusion protein-HRP conjugate immunocomplexes were incubated on the blocked antigen coated plates for 45 minutes at 37° C. in the presence or absence of the test compounds and then washed to remove any unbound proteins. Bound complexes were detected by addition of substrate buffer (95 mM NaOAc.3H2 O, 5 mM citric acid monohydrate, 1.4 mM urea/H2O2) containing 3, 3', 5, 5' Tetramethylbenzidine (SIGMA). Reactions were stopped by the addition of 3N sulfuric acid and the absorbance read on an ELISA reader at dual wavelengths 450 and 630 nm. The efficacy of these compounds was compared to that of sulfatide (positive control) or to lysosulfatide (negative control). The data is obtained as percent inhibition of specific binding [formula] and a plot of dose vs. percent inhibition of Rg binding is generated in which IC50 (μM) is calculated and reported as cell free data in Table 1.

P-selectin [2] = molecular target: T1, P-selectin; assay: HL-60 Cell Binding to P-selectin Rg; type: cell-based; details: HL-60 cells binding to P-selectin Rg coated wells
Protocol: 2. HL-60 Cell Binding to P- and E-Selectin RG
Receptor globulin (Rg) Construction
The chimeric P-and E-selectin receptor globulin (Rg) consists of the human lectin domain, the EGF domain, and two complement repeats of the human selectins fused to the hinge, CH1 and CH2 domains of human IgG1. These proteins were prepared as described by Aruffo, et al., Cell (1991) 67: 35-44; Walz, et al., Science (1990) 250, 1132-1135.
Cell binding assay for Rg
The HL-60 cell line, obtained from the American Type Culture Collection, ATCC No. CCL240, was employed to investigate P-selectin Rg binding. Assays were done in 96-well tissue culture dishes. The wells were first coated with 0.5 ug goat anti-human Fc antiserum overnight, and nonspecific binding sites were blocked by incubation of the wells with 1% nonfat dry milk in phosphate buffered saline (PBS containing 0.9 mM CaCl2 and 0.8 mM MgSO4) for 30 minutes. The Rg was then bound to the anti Fc-coated wells by incubating 50 ng in 50 ul of PBS for two hours. Cells, washed twice and resuspended in PBS to remove traces of medium components, were labeled with 10 uM calcein acetoxy methyl ester for 30 minutes at 3×10^7 cells per ml at room temperature. Serum-containing medium (RPMI with 20% fetal calf serum) was added, and the cells washed, followed by resuspension in PBS and a further spin. The labeled cells, resuspended in PBS, were added to twice washed Rg-containing wells at 200,000 per well. Following a 30 minute incubation with slow shaking, the wells were aspirated and washed three times with PBS to remove unbound cells. To certain wells were added known numbers of cells for determination of a standard curve of fluorescent units per cell. The fluorescence on the plate was quantitated using a fluorescent plate reader. Following subtraction of a blank representing the binding of cells to non-Rg containing wells (<5000 cells), the specific binding to P- or E- selectin was determined.
Inhibitors of cell binding
Test compounds were prepared by dissolution to a final concentration of 20 mg/ml in dimethyl sulfoxide (DMSO), diluted in PBS to 2 mg/ml, and briefly sonicated prior to use. The Rg coated wells were preincubated at room temperature for 15 minutes with the inhibitor, and 200,000 cells were added to yield the final indicated inhibitor concentration in 160 ul of PBS. The data is obtained as percent inhibition of specific binding: [formula] and a plot of dose vs. percent inhibition of Rg binding is generated in which IC50 (μM) is calculated and reported in Table 1.

P-selectin [3] = details: Skinner et al.; cited from earlier work
[4] = tested on: Reverse Passive Arthus Reaction in Rats; assay: Reverse Passive Arthus Reaction in Rats, vascular permeability (VP); type: in vivo; details: rat, IV, % inhibition at 3 mg single dose, 4 hours
Source text: (§1) 3. Reverse Passive Arthus Reaction in Rats
(§2) The reverse passive Arthus reaction in rats is a modification of the method by Mulligan et al., as described in J. Clin. Invest., (1991 ) 88:1396-1406. This is an experimental model in which the interaction of antigen-antibody complexes and complement leads to a severe vasculitis that is associated with edema, induration, erythema and hemorrhage. The interaction between the antigen-antibody complexes and complement leads to a localized influx of neutrophils. These neutrophils release a variety of mediators that are associated with tissue damage and vascular permeability. The localized inflammatory reaction is measured using different techniques i.e., vascular permeability and neutrophil influx which is evaluated both biochemically and microscopically.
(§3) Male Sprague Dawley specific pathogen-free rats with jugular vein cannulae (280-320 g, Hill Top Labs, Pa.) are used in these studies. Animals are acclimated for at least 1 day and individually housed in stainless steel cages. The dorsal region of the rats is closely clipped 2 days prior to the experiments and divided into 4 sites on each side of the midline. Prior to all injections the rats are sedated with 0.4 ml per 300 gm rat of ketamine/rompun [1000 mg (10 ml) of ketamine HCL is mixed with 40 mg (2.0 ml) Rompun] administered IP and or inhalation anesthesia with metafane (methoxyflurane).
(§4) Bovin Serum Albumin (BSA) and rabbit polyclonal IgG rich in anti-BSA are purchased from Sigma Chemical Co. (St. Louis, Mo.). Radiolabelled ^125 I-BSA (spAct 1-5 μCi/μg) is purchased from Dupont NEN (Boston, Mass.).
(§5) Each rat is administered intradermal (ID) injection of (0.4 mg, 0.6 mg and 0.8 mg) anti-BSA in a volume of 100 μl per injection in normal saline. The ID injections are randomized near the mid dorsal region on both sides of the back bone. Immediately after the ID injections of the anti-BSA, the rats are administered intravenous (IV) injections of BSA (10 mg in 1.0 ml) in normal saline containing ^125 I labeled BSA (1 μCi/ml BSA or 5.0 μCi/kg body wt) for quantification of dermal vascular injury. Anti-inflammatory agents such as inhibitors of adhesion molecules of the present invention are administered IV at a single dose of 3 mg immediately after BSA. Four (4) hours after the IV injection of BSA, the rats are anesthetized with metafane and 2 to 3 ml of blood is withdrawn via the cannula into an anticoagulant containing (EDTA or Heparin) tube and plasma separated and saved for neutrophil and albumin quantitation. The rats are killed and the skin surrounding the injection site (15 mm diameter) is punched out and weighed. The skin samples and a fixed volume of plasma (0.1 to 1.0 ml) is analyzed in a gamma-counter for ^125 I content. Skin samples from the contralateral side are processed and analyzed for myeloperoxidase activity (MPO) as a measure of neutrophil accumulation. As needed, samples are also processed for histological evaluation of the reacted sites.
Vascular Permeability (VP)
The calculation of the plasma protein exudation into skin is made by determining the radioactivity in the tissue and relating this to the level of radioactive albumin in the blood at the time of sacrifice. […] [formula]
Percent inhibition of the test compound at 3 mg was determined as follows: [formula] Myeloperoxidase (MPO)

[5] = tested on: Reverse Passive Arthus Reaction in Rats; assay: Reverse Passive Arthus Reaction in Rats, myeloperoxidase (MPO); type: in vivo; details: rat, IV, % inhibition at 3 mg single dose, 4 hours
Source text: as §1, §2, §3, §4, §5
MPO is located in the azurephil granules of polymorphonuclear leukocytes (PMN). Because of its abundance in these cells (5% dry weight), this enzyme is used as a marker for tissue neutrophil content. For tissue MPO content, the method of Bradley, et al., was used as described in J. Invest. […] Change in absorbance at 450 nm was measured at room temperature using a Vmax kinetic plate reader (Molecular Devices, Pale Alto, Calif., USA). Percent inhibition of the test compound at 3 mg dose was determined as follows: [formula] […]

Compound | IC50 (P-selectin [1]) [nM] | IC50 (P-selectin [2]) [nM] | inhibition of P-selectin mediated adhesion (in words) (P-selectin [3]) | RPA VP % Inhib. [4] [%] | RPA MPO % Inhib. [5] [%]
CCCCCC/C=C/[C@@H](OC(=O)c1ccccc1)[C@H](CO[C@@H]1O[C@H](COS(=O)(=O)O)[C@H](O)[C@H](O)[C@H]1OS(=O)(=O)O)NC(=O)CCCCCCCCCCCCCCC [Example 25, (2S,3R,4E)-3-Benzoyloxy-2-hexadecanoylamino-1-[2,6-di-O-(sodiumoxysulfonyl)-β-D-galactopyranosyloxy]-4-undecene] | 2700 | – | – | – | –
CCCCCCCCCCCCC/C=C/[C@@H](OC(=O)c1ccccc1)[C@H](CO[C@@H]1O[C@H](COS(=O)(=O)O)[C@H](OC(C)=O)[C@H](OS(=O)(=O)O)[C@H]1OC(=O)c1ccccc1)NC(=O)CCCCCCCCCCCCCCC [Example 8, (2S,3R,4E)-3-Benzoyloxy-2-hexadecanoylamino-1-[2-O-benzoyl-4-O-acetyl-3,6-di-O-(sodiumoxysulfonyl)-β-D-galactopyranosyloxy]-4-octadecene] | 1300 | 15000 | – | – | –
CCCCCCCCCCCCCCCCCCCCCCCC(=O)N[C@@H](CO[C@@H]1O[C@H](COS(=O)(=O)O)[C@H](OS(=O)(=O)O)[C@H](OC(=O)c2ccccc2)[C@H]1OC(=O)c1ccccc1)[C@@H](CCCCCCCCCCCCCCC)OC(=O)c1ccccc1 [Example 19, (2S,3R)-3-Benzoyloxy-1-[2,3-di-O-benzoyl-4,6-di-O-(sodiumoxysulfonyl)-β-D-galactopyranosyl-oxy]-2-tetracosanoylaminooctadecane] | 600 to 4000 | 45000 | – | – | –
dextran sulfate | – | – | inhibit P-selectin mediated adhesion | – | –
fucoidan | – | – | inhibit P-selectin mediated adhesion | – | –
CCCCCCCCCCCCC/C=C/[C@@H](OC(=O)c1ccccc1)[C@H](CO[C@@H]1O[C@H](COS(=O)(=O)O)[C@@H](OS(=O)(=O)O)[C@H](OC(=O)c2ccccc2)[C@H]1OC(=O)c1ccccc1)NC(=O)CCCCCCCCCCCCCCC [Example 3, (2S,3R,4E)-2-Hexadecanoylamino-3-benzoyloxy-1-(2,3-di-O-benzoyl-4,6-di-O-(sodiumoxysulfonyl)-β-D-glucopyranosyloxy)-4-octadecene] | 200 | – | – | 34 | 14
CCCCCCCCCCCCC/C=C/[C@@H](OC(=O)c1ccccc1)[C@H](CO[C@@H]1O[C@@H]2COC(c3ccccc3)O[C@@H]2[C@H](OS(=O)(=O)O)[C@H]1OS(=O)(=O)O)NC(=O)CCCCCCCCCCCCCCC (stereo partly drawn) [Example 10, (2S,3R,4E)-3-Benzoyloxy-2-hexadecanoylamino-1-[2,3-di-O-(sodiumoxysulfonyl)-4,6-O-benzylidene-β-D-galactopyranosyloxy)-4-octadecene] | – | – | – | 0 | 56
heparin | – | – | inhibit P-selectin mediated adhesion | – | –
CCCCCCCCCCCCC/C=C/[C@@H](OC(=O)c1ccccc1)[C@H](CO[C@@H]1O[C@H](COS(=O)(=O)O)[C@H](OS(=O)(=O)O)[C@H](OC(=O)c2ccccc2)[C@H]1OC(=O)c1ccccc1)NC(=O)CCCCCCCCCCCCCCC [Example 1, (2S,3R,4E)-3-Benzoyloxy-2-hexadecanoylamino-1-[2,3-di-O-benzoyl-4,6-di-O-(sodiumoxysulfonyl)-β-D-galactopyranosyloxy]-4-octadecene] | 100 | – | – | 42 | 24
